This is an account of results in PubChem BioAssay (NCI).

Test systems include A549 NSCLC; MDA-MB-435; MDA-N; RPMI-8226 leukemia.
Holding throughout (test): inhibition of tumour cell growth, NCI panel, 48 h

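Dose response: 5 concentrations. Exposure: 48 h. Format: 96-well plates. Endpoint: linear interpolation; highest concentration if not reached. TGI marks complete inhibition of growth.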

Consider `O=S(=O)(O)c1ccc(N=Nc2c(O)ccc3cc(Br)ccc23)cc1`, for which the TGI in the assay with A549 NSCLC, in the assay with MDA-MB-435, with MDA-N and in the assay on RPMI-8226 leukemia was over 100 µM each time.

On to `Clc1cc(Cl)cc(C2ON=C(c3ccccc3)N2C23CC4CC(CC(C4)C2)C3)c1` (stereo not given), for which the TGI in the assay on A549 NSCLC, with MDA-MB-435, with MDA-N and with RPMI-8226 leukemia was over 10 µM throughout.

Consider `C[C@]12CC/C(=N\O)C=C1CC[C@@H]1[C@@H]2CC[C@]2(C)C(=N/O)/C(=C/c3ccc([N+](=O)[O-])cc3)C[C@@H]12`, for which the TGI in the assay with A549 NSCLC was over 100 µM; in the assay with MDA-MB-435, 19 µM; with MDA-N, 85 µM; in the assay on RPMI-8226 leukemia, 7.61 µM.

As to `CCN1C(=O)C(C)S/C1=N\NC(=O)CSc1nc2ccccc2c(=O)n1CC` (stereo not given), the TGI in the assay on A549 NSCLC, in the assay with MDA-MB-435, with MDA-N and in the assay with RPMI-8226 leukemia was over 100 µM in each case.

Turning to `Cc1ncc2c(=O)c3c(oc2n1)c1ccccc1n3Cc1ccccc1`, the TGI in the assay with A549 NSCLC, with MDA-MB-435, in the assay with MDA-N and with RPMI-8226 leukemia was over 100 µM throughout.

Regarding `O=C1NC(=O)C2(CCCCCC2)N1`, the TGI in the assay with A549 NSCLC, with MDA-MB-435, with MDA-N and with RPMI-8226 leukemia was over 100 µM in each case.

For the compound `c1ccc(-n2nc3ccc4nonc4c3n2)cc1`, the TGI in the assay on A549 NSCLC, with MDA-MB-435, in the assay on MDA-N and in the assay on RPMI-8226 leukemia was over 100 µM throughout.

Take `Cc1ccc(N=Nc2ccc(O)c(CN(C)C)c2)cc1`: the TGI came to 49.4 µM with A549 NSCLC, 32.3 µM in the assay with MDA-MB-435, 30.6 µM in the assay on MDA-N and 48 µM in the assay with RPMI-8226 leukemia.

As to `CCOc1ccc(N/C(Cl)=C(Cl)\C(=C(\Nc2ccc(OCC)cc2)n2nnc3ccccc32)[N+](=O)[O-])cc1`, the TGI with A549 NSCLC is 66.8 µM; with MDA-MB-435 it was 23.7 µM; in the assay with MDA-N it was 13.2 µM; in the assay on RPMI-8226 leukemia it was over 30.5 µM.

As for `CC(NC(=O)c1ccccc1)NC(=O)C(C)C(=O)Nc1ccccc1` (stereo not given), the TGI in the assay with A549 NSCLC, in the assay on MDA-MB-435, in the assay with MDA-N and in the assay with RPMI-8226 leukemia was over 100 µM in each case.

Take `CCc1n[nH]c(=O)n1/N=C/c1ccc(C)cc1`: the TGI with A549 NSCLC, in the assay on MDA-MB-435, with MDA-N and with RPMI-8226 leukemia was over 100 µM in each case.

Regarding `COC(CC1(/C=C/O[Si](C(C)C)(C(C)C)C(C)C)C(=O)N(C)c2ccccc21)OC` (stereo not given), the TGI in the assay on A549 NSCLC, in the assay with MDA-MB-435, with MDA-N and in the assay on RPMI-8226 leukemia was over 100 µM each time.

As for `COc1ccc(/C(O)=C/c2nc3cccnc3nc2/C=C(\O)c2ccc(OC)cc2)cc1`, the TGI in the assay on A549 NSCLC was 39.6 µM; in the assay on MDA-MB-435, 76.4 µM; with MDA-N it was over 100 µM; in the assay on RPMI-8226 leukemia, over 100 µM.

Take `O=C(O)c1ccc(NC(NC(=O)C(C(F)(F)F)C(F)(F)F)(C(F)(F)F)C(F)(F)F)cc1`: the TGI in the assay with A549 NSCLC, in the assay on MDA-MB-435, in the assay on MDA-N and in the assay with RPMI-8226 leukemia was over 100 µM each time.

Take `C[n+]1c(-c2ccc(/C=N/NC(=O)C(=O)N/N=C/c3ccc(-c4cn5ccsc5[n+]4C)cc3)cc2)cn2ccsc21`: the TGI in the assay with A549 NSCLC, in the assay on MDA-MB-435, with MDA-N and in the assay on RPMI-8226 leukemia was over 100 µM throughout.

In the case of `CC(=O)CSc1c(-c2ccccc2)c(=O)n(-c2ccccc2)c(=S)n1-c1ccccc1`, the TGI with A549 NSCLC, in the assay on MDA-MB-435, in the assay with MDA-N and in the assay on RPMI-8226 leukemia was over 100 µM each time.

In the case of `CCOC(=O)CSc1nnc2cc(CN3CCCC3)c(-c3ccc(Cl)cc3)nn12`, the TGI in the assay with A549 NSCLC, in the assay on MDA-MB-435, with MDA-N and in the assay with RPMI-8226 leukemia was over 100 µM in each case.

Take `CNC(=O)N(CCC#N)CCCN(C(=O)NC)c1ccccc1`: the TGI with A549 NSCLC, in the assay on MDA-MB-435, with MDA-N and in the assay on RPMI-8226 leukemia was over 100 µM throughout.

For `CN(C)CCN=C1Nc2ccccc2C(=S)N2CSCC12` (stereo not given), the TGI in the assay with A549 NSCLC, in the assay on MDA-MB-435, in the assay on MDA-N and in the assay with RPMI-8226 leukemia was over 100 µM throughout.

As for `Cc1oc2c(Cl)cc(O)c(Cl)c2c2cccc1-2`, the TGI in the assay with A549 NSCLC is over 100 µM; with MDA-MB-435, 70 µM; in the assay with MDA-N, 60.3 µM; with RPMI-8226 leukemia, 36.6 µM.

As to `O=C(O)CCc1ccc2c(c1)C(=O)CC2`, the TGI in the assay on A549 NSCLC, in the assay with MDA-MB-435, in the assay with MDA-N and in the assay with RPMI-8226 leukemia was over 100 µM throughout.

Turning to `O=c1oc2ccccc2c(O)c1/C=N/C(=S)NCCc1ccccc1`, the TGI in the assay with A549 NSCLC was over 100 µM; in the assay on MDA-MB-435, over 75.3 µM; in the assay with MDA-N, over 100 µM; in the assay with RPMI-8226 leukemia, 89.3 µM.

Turning to `O=c1[nH]nc(Cc2ccccc2)n1/N=C\c1ccccc1`, the TGI with A549 NSCLC, in the assay with MDA-MB-435, in the assay with MDA-N and with RPMI-8226 leukemia was over 100 µM throughout.

As for `COC(=O)[C@@H]1CN(C(C)=O)C(=O)N1C(=O)OCc1ccccc1`, the TGI with A549 NSCLC, in the assay on MDA-MB-435, in the assay on MDA-N and in the assay on RPMI-8226 leukemia was over 100 µM each time.

As for `O=C(Nc1ccccc1)N(C1=NCC(CI)S1)c1ccc(F)cc1F` (stereo not given), the TGI in the assay on A549 NSCLC, with MDA-MB-435, in the assay on MDA-N and with RPMI-8226 leukemia was over 100 µM throughout.
